molecular target: CDK9/cyclin T (Homo sapiens, UniProt P50750); assay: radiometric protein kinase assay; settings: not given
Sequence (P50750 whole entry): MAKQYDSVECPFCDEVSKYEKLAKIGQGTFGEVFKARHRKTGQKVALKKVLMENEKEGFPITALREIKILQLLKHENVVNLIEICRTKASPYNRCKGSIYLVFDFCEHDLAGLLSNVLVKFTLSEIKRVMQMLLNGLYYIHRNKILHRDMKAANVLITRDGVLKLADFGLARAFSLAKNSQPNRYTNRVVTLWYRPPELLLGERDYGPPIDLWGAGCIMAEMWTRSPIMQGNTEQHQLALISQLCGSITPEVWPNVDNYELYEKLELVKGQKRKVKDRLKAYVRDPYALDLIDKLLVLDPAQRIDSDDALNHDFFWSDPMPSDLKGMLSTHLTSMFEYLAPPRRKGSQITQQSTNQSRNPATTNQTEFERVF
Sequence (O60563 whole entry partner): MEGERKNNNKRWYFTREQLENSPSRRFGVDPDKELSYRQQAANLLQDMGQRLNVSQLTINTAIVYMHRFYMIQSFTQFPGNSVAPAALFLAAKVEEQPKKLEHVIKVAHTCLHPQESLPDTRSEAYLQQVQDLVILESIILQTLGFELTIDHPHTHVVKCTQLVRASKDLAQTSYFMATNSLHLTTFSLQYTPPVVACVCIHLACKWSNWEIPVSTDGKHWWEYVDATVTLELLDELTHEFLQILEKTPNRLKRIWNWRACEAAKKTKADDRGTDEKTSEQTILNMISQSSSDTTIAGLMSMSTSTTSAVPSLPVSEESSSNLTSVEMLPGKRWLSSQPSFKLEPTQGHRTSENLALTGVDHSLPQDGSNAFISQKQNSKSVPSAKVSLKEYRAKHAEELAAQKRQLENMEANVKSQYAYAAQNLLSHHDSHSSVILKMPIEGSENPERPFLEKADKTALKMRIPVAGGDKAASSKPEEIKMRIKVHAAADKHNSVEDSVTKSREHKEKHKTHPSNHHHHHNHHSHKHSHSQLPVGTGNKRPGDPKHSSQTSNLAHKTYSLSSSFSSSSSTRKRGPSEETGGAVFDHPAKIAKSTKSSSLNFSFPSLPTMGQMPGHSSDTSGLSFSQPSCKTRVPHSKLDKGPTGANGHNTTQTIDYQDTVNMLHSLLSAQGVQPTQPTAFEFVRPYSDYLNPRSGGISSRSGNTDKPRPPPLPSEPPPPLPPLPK

SMILES | IC50 [µM]
CN1Cc2ccc3c(-c4ccccc4)cn(C)c3c2C1=O [15e, 1,7-Dimethyl-3-phenyl-6,7-dihydropyrrolo[3,4-g]indol-8(1H)-one] | > 10
Cc1cccc(-c2c[nH]c3c4c(ccc23)CNC4=O)c1 [8i, 3-(3-Methylphenyl)-6,7-dihydropyrrolo[3,4-g]indol-8(1H)-one] | > 10
CC(=O)Oc1cccc(-c2c[nH]c3c4c(ccc23)CNC4=O)c1 [8h, 3-(8-Oxo-1,6,7,8-tetrahydropyrrolo[3,4-g]indol-3-yl)phenyl acetate] | > 10
NC(=O)Cn1cc(-c2ccccc2)c2ccc3c(c21)C(=O)NC3 [15c, 2-(8-Oxo-3-phenyl-7,8-dihydropyrrolo[3,4-g]indol-1(6H)-yl)acetamide] | > 10

molecular target: DYRK1A (Homo sapiens, UniProt Q13627); assay: radiometric protein kinase assay; type: biochemical; settings: 15 μmol/L ATP; read-out: IC50 DYRK 1A

SMILES | IC50 [µM]
CN1Cc2ccc3c(-c4ccccc4)cn(C)c3c2C1=O [15e, 1,7-Dimethyl-3-phenyl-6,7-dihydropyrrolo[3,4-g]indol-8(1H)-one] | > 10
Cc1cccc(-c2c[nH]c3c4c(ccc23)CNC4=O)c1 [8i, 3-(3-Methylphenyl)-6,7-dihydropyrrolo[3,4-g]indol-8(1H)-one] | 2.6
CC(=O)Oc1cccc(-c2c[nH]c3c4c(ccc23)CNC4=O)c1 [8h, 3-(8-Oxo-1,6,7,8-tetrahydropyrrolo[3,4-g]indol-3-yl)phenyl acetate] | 1.4
NC(=O)Cn1cc(-c2ccccc2)c2ccc3c(c21)C(=O)NC3 [15c, 2-(8-Oxo-3-phenyl-7,8-dihydropyrrolo[3,4-g]indol-1(6H)-yl)acetamide] | > 10

molecular target: DYRK1B (Homo sapiens, UniProt Q9Y463); assay: radiometric protein kinase assay; type: biochemical; settings: 15 μmol/L ATP; read-out: IC50 DYRK 1B
Sequence (Q9Y463 whole entry): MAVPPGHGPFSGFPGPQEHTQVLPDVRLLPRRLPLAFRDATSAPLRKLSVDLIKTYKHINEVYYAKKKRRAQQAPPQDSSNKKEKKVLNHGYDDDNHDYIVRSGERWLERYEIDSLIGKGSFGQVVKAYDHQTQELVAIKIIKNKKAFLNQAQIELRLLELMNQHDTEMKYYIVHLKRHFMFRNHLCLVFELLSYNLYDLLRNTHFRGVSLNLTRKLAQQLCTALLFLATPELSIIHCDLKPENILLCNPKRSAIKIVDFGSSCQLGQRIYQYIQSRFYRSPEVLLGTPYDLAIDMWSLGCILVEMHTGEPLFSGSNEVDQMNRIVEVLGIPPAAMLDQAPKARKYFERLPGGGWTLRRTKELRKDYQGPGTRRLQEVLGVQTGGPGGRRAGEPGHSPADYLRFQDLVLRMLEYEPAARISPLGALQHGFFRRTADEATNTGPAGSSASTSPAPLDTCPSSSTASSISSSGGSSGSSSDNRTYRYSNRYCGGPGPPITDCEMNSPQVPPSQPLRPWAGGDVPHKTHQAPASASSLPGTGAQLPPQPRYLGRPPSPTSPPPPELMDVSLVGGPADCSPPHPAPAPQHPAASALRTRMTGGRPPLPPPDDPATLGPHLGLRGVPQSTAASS

SMILES | IC50 [µM]
CN1Cc2ccc3c(-c4ccccc4)cn(C)c3c2C1=O [15e, 1,7-Dimethyl-3-phenyl-6,7-dihydropyrrolo[3,4-g]indol-8(1H)-one] | > 10
Cc1cccc(-c2c[nH]c3c4c(ccc23)CNC4=O)c1 [8i, 3-(3-Methylphenyl)-6,7-dihydropyrrolo[3,4-g]indol-8(1H)-one] | 4.1
CC(=O)Oc1cccc(-c2c[nH]c3c4c(ccc23)CNC4=O)c1 [8h, 3-(8-Oxo-1,6,7,8-tetrahydropyrrolo[3,4-g]indol-3-yl)phenyl acetate] | 1.5
NC(=O)Cn1cc(-c2ccccc2)c2ccc3c(c21)C(=O)NC3 [15c, 2-(8-Oxo-3-phenyl-7,8-dihydropyrrolo[3,4-g]indol-1(6H)-yl)acetamide] | > 10

molecular target: CLK4 (Mus musculus, UniProt O35493); assay: radiometric protein kinase assay; settings: not given
Sequence (O35493 whole entry): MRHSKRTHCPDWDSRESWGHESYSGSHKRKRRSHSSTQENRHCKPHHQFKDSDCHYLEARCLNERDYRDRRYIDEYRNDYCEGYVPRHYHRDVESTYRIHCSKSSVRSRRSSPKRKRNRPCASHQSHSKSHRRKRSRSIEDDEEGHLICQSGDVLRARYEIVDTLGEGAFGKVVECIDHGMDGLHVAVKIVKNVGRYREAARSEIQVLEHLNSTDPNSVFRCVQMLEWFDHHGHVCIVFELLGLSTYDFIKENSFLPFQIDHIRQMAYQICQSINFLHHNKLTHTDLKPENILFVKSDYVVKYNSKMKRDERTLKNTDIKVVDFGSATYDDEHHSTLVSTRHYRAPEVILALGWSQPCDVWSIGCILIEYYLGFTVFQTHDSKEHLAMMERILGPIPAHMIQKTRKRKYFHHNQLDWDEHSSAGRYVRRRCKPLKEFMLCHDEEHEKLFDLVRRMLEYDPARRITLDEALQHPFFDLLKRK

SMILES | IC50 [µM]
CN1Cc2ccc3c(-c4ccccc4)cn(C)c3c2C1=O [15e, 1,7-Dimethyl-3-phenyl-6,7-dihydropyrrolo[3,4-g]indol-8(1H)-one] | > 10
Cc1cccc(-c2c[nH]c3c4c(ccc23)CNC4=O)c1 [8i, 3-(3-Methylphenyl)-6,7-dihydropyrrolo[3,4-g]indol-8(1H)-one] | 0.14
CC(=O)Oc1cccc(-c2c[nH]c3c4c(ccc23)CNC4=O)c1 [8h, 3-(8-Oxo-1,6,7,8-tetrahydropyrrolo[3,4-g]indol-3-yl)phenyl acetate] | 0.13
NC(=O)Cn1cc(-c2ccccc2)c2ccc3c(c21)C(=O)NC3 [15c, 2-(8-Oxo-3-phenyl-7,8-dihydropyrrolo[3,4-g]indol-1(6H)-yl)acetamide] | > 10

molecular target: T1, DYRK3 (Homo sapiens, UniProt O43781); assay: radiometric protein kinase assay; type: biochemical; settings: 15 μmol/L ATP; read-out: IC50 DYRK 3
T1 sequence (O43781 1-588): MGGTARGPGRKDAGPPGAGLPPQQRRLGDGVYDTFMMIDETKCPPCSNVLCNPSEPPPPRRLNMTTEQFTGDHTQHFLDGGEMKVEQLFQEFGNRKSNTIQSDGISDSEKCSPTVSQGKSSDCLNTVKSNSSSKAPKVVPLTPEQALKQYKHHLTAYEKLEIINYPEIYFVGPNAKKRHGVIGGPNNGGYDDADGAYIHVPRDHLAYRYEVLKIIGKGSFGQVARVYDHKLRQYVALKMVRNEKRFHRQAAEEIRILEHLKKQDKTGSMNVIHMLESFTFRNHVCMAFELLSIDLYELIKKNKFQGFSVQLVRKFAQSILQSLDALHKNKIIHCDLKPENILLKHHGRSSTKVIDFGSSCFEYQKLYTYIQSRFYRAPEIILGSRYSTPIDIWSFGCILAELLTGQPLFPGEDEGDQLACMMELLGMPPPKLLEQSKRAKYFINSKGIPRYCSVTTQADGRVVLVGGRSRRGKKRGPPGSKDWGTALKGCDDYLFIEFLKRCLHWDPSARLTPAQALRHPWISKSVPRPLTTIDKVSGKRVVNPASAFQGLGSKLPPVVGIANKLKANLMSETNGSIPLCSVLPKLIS

SMILES | IC50 [µM]
CN1Cc2ccc3c(-c4ccccc4)cn(C)c3c2C1=O [15e, 1,7-Dimethyl-3-phenyl-6,7-dihydropyrrolo[3,4-g]indol-8(1H)-one] | > 10
Cc1cccc(-c2c[nH]c3c4c(ccc23)CNC4=O)c1 [8i, 3-(3-Methylphenyl)-6,7-dihydropyrrolo[3,4-g]indol-8(1H)-one] | > 10
CC(=O)Oc1cccc(-c2c[nH]c3c4c(ccc23)CNC4=O)c1 [8h, 3-(8-Oxo-1,6,7,8-tetrahydropyrrolo[3,4-g]indol-3-yl)phenyl acetate] | 6.1
NC(=O)Cn1cc(-c2ccccc2)c2ccc3c(c21)C(=O)NC3 [15c, 2-(8-Oxo-3-phenyl-7,8-dihydropyrrolo[3,4-g]indol-1(6H)-yl)acetamide] | > 10

molecular target: T2, DYRK2 (Homo sapiens, UniProt Q92630); assay: radiometric protein kinase assay; type: biochemical; settings: 15 μmol/L ATP; read-out: IC50 DYRK 2
T2 sequence (Q92630 1-601): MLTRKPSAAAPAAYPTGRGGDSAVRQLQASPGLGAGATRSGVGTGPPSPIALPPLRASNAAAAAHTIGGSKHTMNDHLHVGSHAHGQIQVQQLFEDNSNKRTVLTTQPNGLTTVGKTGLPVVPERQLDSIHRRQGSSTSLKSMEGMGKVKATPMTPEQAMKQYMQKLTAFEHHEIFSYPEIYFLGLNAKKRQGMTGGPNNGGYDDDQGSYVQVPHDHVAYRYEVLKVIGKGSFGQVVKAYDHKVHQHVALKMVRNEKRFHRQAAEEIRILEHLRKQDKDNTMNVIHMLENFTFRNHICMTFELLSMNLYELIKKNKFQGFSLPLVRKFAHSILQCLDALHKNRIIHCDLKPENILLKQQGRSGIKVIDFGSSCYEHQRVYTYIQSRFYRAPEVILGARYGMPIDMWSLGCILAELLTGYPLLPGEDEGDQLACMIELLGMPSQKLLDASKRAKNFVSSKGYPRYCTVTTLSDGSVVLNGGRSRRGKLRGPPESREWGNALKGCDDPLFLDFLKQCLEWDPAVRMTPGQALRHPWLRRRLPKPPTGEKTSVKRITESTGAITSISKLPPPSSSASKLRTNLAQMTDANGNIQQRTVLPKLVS

SMILES | IC50 [µM]
CN1Cc2ccc3c(-c4ccccc4)cn(C)c3c2C1=O [15e, 1,7-Dimethyl-3-phenyl-6,7-dihydropyrrolo[3,4-g]indol-8(1H)-one] | > 10
Cc1cccc(-c2c[nH]c3c4c(ccc23)CNC4=O)c1 [8i, 3-(3-Methylphenyl)-6,7-dihydropyrrolo[3,4-g]indol-8(1H)-one] | 3.1
CC(=O)Oc1cccc(-c2c[nH]c3c4c(ccc23)CNC4=O)c1 [8h, 3-(8-Oxo-1,6,7,8-tetrahydropyrrolo[3,4-g]indol-3-yl)phenyl acetate] | 2.4
NC(=O)Cn1cc(-c2ccccc2)c2ccc3c(c21)C(=O)NC3 [15c, 2-(8-Oxo-3-phenyl-7,8-dihydropyrrolo[3,4-g]indol-1(6H)-yl)acetamide] | > 10

molecular target: T3, CDK2/cyclin A (Homo sapiens, UniProt P24941); assay: radiometric protein kinase assay; type: biochemical; settings: 15 μmol/L ATP; read-out: IC50 CDK2/cyclinA
T3 construct: made in house

SMILES | IC50 [µM]
CN1Cc2ccc3c(-c4ccccc4)cn(C)c3c2C1=O [15e, 1,7-Dimethyl-3-phenyl-6,7-dihydropyrrolo[3,4-g]indol-8(1H)-one] | > 10
Cc1cccc(-c2c[nH]c3c4c(ccc23)CNC4=O)c1 [8i, 3-(3-Methylphenyl)-6,7-dihydropyrrolo[3,4-g]indol-8(1H)-one] | > 10
CC(=O)Oc1cccc(-c2c[nH]c3c4c(ccc23)CNC4=O)c1 [8h, 3-(8-Oxo-1,6,7,8-tetrahydropyrrolo[3,4-g]indol-3-yl)phenyl acetate] | > 10
NC(=O)Cn1cc(-c2ccccc2)c2ccc3c(c21)C(=O)NC3 [15c, 2-(8-Oxo-3-phenyl-7,8-dihydropyrrolo[3,4-g]indol-1(6H)-yl)acetamide] | > 10

molecular target: CLK2 (Mus musculus, UniProt O35491); assay: radiometric protein kinase assay; settings: not given
Sequence (O35491 whole entry): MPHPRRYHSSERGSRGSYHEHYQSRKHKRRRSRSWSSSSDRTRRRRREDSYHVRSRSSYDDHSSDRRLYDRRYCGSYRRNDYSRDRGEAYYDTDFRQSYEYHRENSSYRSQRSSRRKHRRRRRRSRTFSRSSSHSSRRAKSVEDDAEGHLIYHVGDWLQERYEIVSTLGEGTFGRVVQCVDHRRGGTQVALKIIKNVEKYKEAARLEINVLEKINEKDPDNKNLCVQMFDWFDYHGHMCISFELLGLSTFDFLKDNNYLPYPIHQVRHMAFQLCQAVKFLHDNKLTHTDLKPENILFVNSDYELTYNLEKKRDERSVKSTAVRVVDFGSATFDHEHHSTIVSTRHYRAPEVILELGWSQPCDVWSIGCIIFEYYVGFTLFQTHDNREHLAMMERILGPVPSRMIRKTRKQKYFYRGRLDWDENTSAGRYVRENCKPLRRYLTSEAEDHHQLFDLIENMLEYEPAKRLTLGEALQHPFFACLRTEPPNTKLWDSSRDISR

SMILES | IC50 [µM]
CN1Cc2ccc3c(-c4ccccc4)cn(C)c3c2C1=O [15e, 1,7-Dimethyl-3-phenyl-6,7-dihydropyrrolo[3,4-g]indol-8(1H)-one] | > 10
Cc1cccc(-c2c[nH]c3c4c(ccc23)CNC4=O)c1 [8i, 3-(3-Methylphenyl)-6,7-dihydropyrrolo[3,4-g]indol-8(1H)-one] | 0.41
CC(=O)Oc1cccc(-c2c[nH]c3c4c(ccc23)CNC4=O)c1 [8h, 3-(8-Oxo-1,6,7,8-tetrahydropyrrolo[3,4-g]indol-3-yl)phenyl acetate] | 0.32
NC(=O)Cn1cc(-c2ccccc2)c2ccc3c(c21)C(=O)NC3 [15c, 2-(8-Oxo-3-phenyl-7,8-dihydropyrrolo[3,4-g]indol-1(6H)-yl)acetamide] | > 10

molecular target: CDK1/cyclin B; assay: radiometric protein kinase assay; type: biochemical, starfish; settings: 15 μmol/L ATP

SMILES | IC50 [µM]
CN1Cc2ccc3c(-c4ccccc4)cn(C)c3c2C1=O [15e, 1,7-Dimethyl-3-phenyl-6,7-dihydropyrrolo[3,4-g]indol-8(1H)-one] | > 10
Cc1cccc(-c2c[nH]c3c4c(ccc23)CNC4=O)c1 [8i, 3-(3-Methylphenyl)-6,7-dihydropyrrolo[3,4-g]indol-8(1H)-one] | > 10
CC(=O)Oc1cccc(-c2c[nH]c3c4c(ccc23)CNC4=O)c1 [8h, 3-(8-Oxo-1,6,7,8-tetrahydropyrrolo[3,4-g]indol-3-yl)phenyl acetate] | > 10
NC(=O)Cn1cc(-c2ccccc2)c2ccc3c(c21)C(=O)NC3 [15c, 2-(8-Oxo-3-phenyl-7,8-dihydropyrrolo[3,4-g]indol-1(6H)-yl)acetamide] | > 10

molecular target: GSK-3; assay: radiometric protein kinase assay; type: biochemical, porcine; settings: 15 μmol/L ATP; read-out: IC50 GSK3

SMILES | IC50 [µM]
CN1Cc2ccc3c(-c4ccccc4)cn(C)c3c2C1=O [15e, 1,7-Dimethyl-3-phenyl-6,7-dihydropyrrolo[3,4-g]indol-8(1H)-one] | > 10
Cc1cccc(-c2c[nH]c3c4c(ccc23)CNC4=O)c1 [8i, 3-(3-Methylphenyl)-6,7-dihydropyrrolo[3,4-g]indol-8(1H)-one] | > 10
CC(=O)Oc1cccc(-c2c[nH]c3c4c(ccc23)CNC4=O)c1 [8h, 3-(8-Oxo-1,6,7,8-tetrahydropyrrolo[3,4-g]indol-3-yl)phenyl acetate] | > 10
NC(=O)Cn1cc(-c2ccccc2)c2ccc3c(c21)C(=O)NC3 [15c, 2-(8-Oxo-3-phenyl-7,8-dihydropyrrolo[3,4-g]indol-1(6H)-yl)acetamide] | > 10

molecular target: T4, CDK5/p25 (Homo sapiens, UniProt Q00535); assay: radiometric protein kinase assay; type: biochemical; settings: 15 μmol/L ATP
T4 construct: made in house
T4 sequence (Q00535 whole entry): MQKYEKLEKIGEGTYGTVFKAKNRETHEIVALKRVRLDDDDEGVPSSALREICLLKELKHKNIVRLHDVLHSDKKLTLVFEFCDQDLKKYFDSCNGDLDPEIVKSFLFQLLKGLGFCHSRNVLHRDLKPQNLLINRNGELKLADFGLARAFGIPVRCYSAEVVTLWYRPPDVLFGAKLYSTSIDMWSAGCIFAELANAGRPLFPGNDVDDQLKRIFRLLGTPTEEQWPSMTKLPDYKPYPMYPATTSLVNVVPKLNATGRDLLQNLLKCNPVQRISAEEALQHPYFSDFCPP
T4 sequence (Q15078 99-307 partner limits assumed): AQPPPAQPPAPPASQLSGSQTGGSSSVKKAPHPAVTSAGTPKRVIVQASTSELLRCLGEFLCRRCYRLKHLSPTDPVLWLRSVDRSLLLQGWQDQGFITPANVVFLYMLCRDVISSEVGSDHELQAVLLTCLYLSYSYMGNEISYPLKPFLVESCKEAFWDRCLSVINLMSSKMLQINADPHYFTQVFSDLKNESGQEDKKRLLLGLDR

SMILES | IC50 [µM]
CN1Cc2ccc3c(-c4ccccc4)cn(C)c3c2C1=O [15e, 1,7-Dimethyl-3-phenyl-6,7-dihydropyrrolo[3,4-g]indol-8(1H)-one] | > 10
Cc1cccc(-c2c[nH]c3c4c(ccc23)CNC4=O)c1 [8i, 3-(3-Methylphenyl)-6,7-dihydropyrrolo[3,4-g]indol-8(1H)-one] | > 10
CC(=O)Oc1cccc(-c2c[nH]c3c4c(ccc23)CNC4=O)c1 [8h, 3-(8-Oxo-1,6,7,8-tetrahydropyrrolo[3,4-g]indol-3-yl)phenyl acetate] | > 10
NC(=O)Cn1cc(-c2ccccc2)c2ccc3c(c21)C(=O)NC3 [15c, 2-(8-Oxo-3-phenyl-7,8-dihydropyrrolo[3,4-g]indol-1(6H)-yl)acetamide] | > 10

molecular target: CK1δ/ε; assay: radiometric protein kinase assay; type: biochemical, porcine; settings: 15 μmol/L ATP; read-out: IC50 CK1

SMILES | IC50 [µM]
CN1Cc2ccc3c(-c4ccccc4)cn(C)c3c2C1=O [15e, 1,7-Dimethyl-3-phenyl-6,7-dihydropyrrolo[3,4-g]indol-8(1H)-one] | > 10
Cc1cccc(-c2c[nH]c3c4c(ccc23)CNC4=O)c1 [8i, 3-(3-Methylphenyl)-6,7-dihydropyrrolo[3,4-g]indol-8(1H)-one] | > 10
CC(=O)Oc1cccc(-c2c[nH]c3c4c(ccc23)CNC4=O)c1 [8h, 3-(8-Oxo-1,6,7,8-tetrahydropyrrolo[3,4-g]indol-3-yl)phenyl acetate] | > 10
NC(=O)Cn1cc(-c2ccccc2)c2ccc3c(c21)C(=O)NC3 [15c, 2-(8-Oxo-3-phenyl-7,8-dihydropyrrolo[3,4-g]indol-1(6H)-yl)acetamide] | > 10

molecular target: CLK3 (Mus musculus, UniProt O35492); assay: radiometric protein kinase assay; settings: not given
Sequence (O35492 whole entry): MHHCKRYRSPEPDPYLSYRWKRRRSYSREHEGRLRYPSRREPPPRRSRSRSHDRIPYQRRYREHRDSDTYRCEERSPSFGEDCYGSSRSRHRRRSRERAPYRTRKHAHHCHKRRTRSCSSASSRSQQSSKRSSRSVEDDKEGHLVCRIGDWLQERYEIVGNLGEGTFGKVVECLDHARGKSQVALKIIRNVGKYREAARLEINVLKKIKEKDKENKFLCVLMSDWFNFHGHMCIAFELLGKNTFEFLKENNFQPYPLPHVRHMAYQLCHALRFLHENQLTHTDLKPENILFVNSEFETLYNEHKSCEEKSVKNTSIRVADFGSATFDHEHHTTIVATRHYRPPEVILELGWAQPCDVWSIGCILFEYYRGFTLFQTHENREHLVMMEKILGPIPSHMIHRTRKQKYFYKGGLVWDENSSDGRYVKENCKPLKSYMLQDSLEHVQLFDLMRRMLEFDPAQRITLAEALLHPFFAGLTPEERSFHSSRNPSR

SMILES | IC50 [µM]
CN1Cc2ccc3c(-c4ccccc4)cn(C)c3c2C1=O [15e, 1,7-Dimethyl-3-phenyl-6,7-dihydropyrrolo[3,4-g]indol-8(1H)-one] | > 10
Cc1cccc(-c2c[nH]c3c4c(ccc23)CNC4=O)c1 [8i, 3-(3-Methylphenyl)-6,7-dihydropyrrolo[3,4-g]indol-8(1H)-one] | 5.1
CC(=O)Oc1cccc(-c2c[nH]c3c4c(ccc23)CNC4=O)c1 [8h, 3-(8-Oxo-1,6,7,8-tetrahydropyrrolo[3,4-g]indol-3-yl)phenyl acetate] | 3.3
NC(=O)Cn1cc(-c2ccccc2)c2ccc3c(c21)C(=O)NC3 [15c, 2-(8-Oxo-3-phenyl-7,8-dihydropyrrolo[3,4-g]indol-1(6H)-yl)acetamide] | > 10

molecular target: CLK1 (Mus musculus, UniProt P22518); assay: radiometric protein kinase assay; settings: not given
Sequence (P22518 whole entry): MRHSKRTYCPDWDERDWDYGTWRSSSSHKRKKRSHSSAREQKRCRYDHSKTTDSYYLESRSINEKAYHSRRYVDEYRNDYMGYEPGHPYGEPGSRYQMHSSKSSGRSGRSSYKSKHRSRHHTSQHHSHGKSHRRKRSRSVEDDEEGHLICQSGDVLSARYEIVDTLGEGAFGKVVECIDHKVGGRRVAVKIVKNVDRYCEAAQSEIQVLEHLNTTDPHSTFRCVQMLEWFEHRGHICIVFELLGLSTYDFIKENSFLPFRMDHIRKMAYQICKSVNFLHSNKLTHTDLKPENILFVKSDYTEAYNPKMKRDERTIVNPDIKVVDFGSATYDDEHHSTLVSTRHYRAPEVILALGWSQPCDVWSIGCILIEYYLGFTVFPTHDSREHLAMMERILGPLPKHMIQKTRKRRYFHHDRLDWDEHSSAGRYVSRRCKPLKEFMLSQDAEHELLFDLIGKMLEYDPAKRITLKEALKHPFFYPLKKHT

SMILES | IC50 [µM]
CN1Cc2ccc3c(-c4ccccc4)cn(C)c3c2C1=O [15e, 1,7-Dimethyl-3-phenyl-6,7-dihydropyrrolo[3,4-g]indol-8(1H)-one] | > 10
Cc1cccc(-c2c[nH]c3c4c(ccc23)CNC4=O)c1 [8i, 3-(3-Methylphenyl)-6,7-dihydropyrrolo[3,4-g]indol-8(1H)-one] | 0.061
CC(=O)Oc1cccc(-c2c[nH]c3c4c(ccc23)CNC4=O)c1 [8h, 3-(8-Oxo-1,6,7,8-tetrahydropyrrolo[3,4-g]indol-3-yl)phenyl acetate] | 0.17
NC(=O)Cn1cc(-c2ccccc2)c2ccc3c(c21)C(=O)NC3 [15c, 2-(8-Oxo-3-phenyl-7,8-dihydropyrrolo[3,4-g]indol-1(6H)-yl)acetamide] | > 10

Source: PMC5933782, “Molecular structures of cdc2-like kinases in complex with a new inhibitor chemotype” (PLoS ONE, 2018)
